Article PMC4157028, “HPTLC Analysis, Antioxidant and Antigout Activity of Indian Plants” (Iranian Journal of Pharmaceutical Research : IJPR, 2014)
In brackets after ≈: the same amount, converted by molar mass.

Molecular target: T1, cow milk xanthine oxidase
T1 construct: gene XDH; commercial enzyme from Himedia Laboratories; abstract says cow milk, reagent list says source: microorganisms
Assay: spectrophotometric uric acid formation at […] nm
Type: biochemical
Settings: xanthine substrate (150 mM stock as printed, 2 mL added), phosphate buffer pH 7.5, 25 °C, 15 min preincubation, 30 min reaction

`O=c1[nH]cnc2[nH]ncc12` [Allopurinol] was tested, and the IC50 was 6.75 µg/mL (≈ 49.6 µM).
